Reference: article PMC9774946, “Trans-(±)-Kusunokinin Binding to AKR1B1 Inhibits Oxidative Stress and Proteins Involved in Migration in Aggressive Breast Cancer” (Antioxidants, 2022)

Legend:
[1] = target: T1, AKR1B1 (aldose reductase) (Homo sapiens, UniProt P15121); assay: aldose reductase inhibitor screening kit (NADPH consumption at […] nm); supported by CETSA in Hs578T and SKOV3 cells; format: biochemical
[2] = target: T1, AKR1B1 (aldose reductase); assay: aldose reductase inhibitor screening kit, NADPH consumption at […] nm; format: biochemical

## COc1ccc(C[C@H]2COC(=O)[C@@H]2Cc2ccc3c(c2)OCO3)cc1OC (racemic) [(±)KU, trans-(±)-kusunokinin]
[1]
  IC50: 9.72 ± 0.18 µM

## COc1ccc(C[C@H]2COC(=O)[C@@H]2Cc2ccc(O[C@@H]3O[C@H](CO)[C@@H](O)[C@H](O)[C@H]3O)c(OC)c2)cc1OC [(−)AR, trans-(−)-arctiin]
[2]
  IC50: 13.7 µM
